Laboratory results taken from ChEMBL document CHEMBL4765285, “Discovery of orally active indirubin-3'-oxime derivatives as potent type 1 FLT3 inhibitors for acute myeloid leukemia” (Eur J Med Chem, 2020).
Active and inactive are the calls of the source. The calls are words filed in the database; no cut-off is given here.

Tests used:
[1] = molecular target: T1, Receptor-type tyrosine-protein kinase FLT3 (Homo sapiens, UniProt P36888)
T1 sequence (P36888 whole entry): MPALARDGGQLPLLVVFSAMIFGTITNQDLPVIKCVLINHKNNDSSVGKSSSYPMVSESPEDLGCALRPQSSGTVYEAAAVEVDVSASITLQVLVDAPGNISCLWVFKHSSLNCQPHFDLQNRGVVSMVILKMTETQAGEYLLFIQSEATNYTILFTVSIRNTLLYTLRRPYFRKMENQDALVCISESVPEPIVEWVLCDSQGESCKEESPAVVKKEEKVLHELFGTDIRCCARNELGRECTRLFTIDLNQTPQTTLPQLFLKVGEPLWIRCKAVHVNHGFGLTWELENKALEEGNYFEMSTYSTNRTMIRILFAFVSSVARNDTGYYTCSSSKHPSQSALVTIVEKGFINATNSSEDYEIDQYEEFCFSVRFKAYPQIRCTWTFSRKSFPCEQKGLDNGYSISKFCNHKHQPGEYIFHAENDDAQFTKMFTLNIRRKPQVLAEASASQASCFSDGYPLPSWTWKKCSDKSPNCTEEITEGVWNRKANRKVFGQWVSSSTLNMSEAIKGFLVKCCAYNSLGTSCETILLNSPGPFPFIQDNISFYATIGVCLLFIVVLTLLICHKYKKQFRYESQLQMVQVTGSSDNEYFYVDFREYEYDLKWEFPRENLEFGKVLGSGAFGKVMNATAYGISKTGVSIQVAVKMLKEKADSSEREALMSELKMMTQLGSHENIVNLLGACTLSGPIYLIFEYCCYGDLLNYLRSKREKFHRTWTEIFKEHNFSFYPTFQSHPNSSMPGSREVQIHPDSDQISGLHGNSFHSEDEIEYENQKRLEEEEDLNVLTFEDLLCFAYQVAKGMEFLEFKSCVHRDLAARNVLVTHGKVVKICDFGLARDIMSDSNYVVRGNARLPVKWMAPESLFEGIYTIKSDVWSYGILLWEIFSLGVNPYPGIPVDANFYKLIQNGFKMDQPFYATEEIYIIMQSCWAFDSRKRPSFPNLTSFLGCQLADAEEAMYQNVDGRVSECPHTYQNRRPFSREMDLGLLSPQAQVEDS
Description: Inhibition of recombinant His-tagged human FLT3 expressed in baculovirus expression system using peptide substrate incubated for 30 mins in presence of ATP by HTRF assay

[2] = test system: MV4-11; experiment: cells; conditions: Homo sapiens, MV4-11, 72 h
Description: Antiproliferative activity against human MV4-11 cells assessed as cell growth inhibition after 72 hrs by WST assay

[3] = Oral bioavailability in ICR mouse at 10 mg/kg measured up to 1440 mins by LC-MS/MS analysis; assay type: ADME, organism-based; conditions: in vivo
[4] = Clearance in ICR mouse at 10 mg/kg, iv or po measured up to 1440 mins by LC-MS/MS analysis; assay type: ADME, organism-based; conditions: in vivo
[5] = Half-life in ICR mouse at 10 mg/kg, iv or po measured up to 1440 mins by LC-MS/MS analysis; assay type: ADME, organism-based; conditions: in vivo
[6] = test system: MV4-11; experiment: Antiproliferative activity against human MV4-11 cells assessed as cell growth inhibition by Celltiter-Glo luminescent assay; assay type: functional
[7] = test system: K562; experiment: Antiproliferative activity against human K562 cells assessed as cell growth inhibition by WST assay; assay type: functional
[8] = test system: MOLM-14; experiment: cells; conditions: Homo sapiens
Description: Antiproliferative activity against wild type human MOLM14 cells assessed as cell growth inhibition by MTT assay

[9] = test system: MOLM-14; experiment: cells; conditions: Homo sapiens; remark: listed apart in the source
Description: Antiproliferative activity against human MOLM14 cells harboring ITD mutant assessed as cell growth inhibition by MTT assay

[10] = test system: MOLM-14; experiment: cells; conditions: Homo sapiens; remark: listed apart in the source
Description: Antiproliferative activity against human MOLM14 cells harboring ITD/D835Y mutant assessed as cell growth inhibition by MTT assay

[11] = test system: MOLM-14; experiment: cells; conditions: Homo sapiens; remark: listed apart in the source
Description: Antiproliferative activity against human MOLM14 cells harboring ITD/F691L mutant assessed as cell growth inhibition by MTT assay

[12] = test system: A549; experiment: cells; conditions: Homo sapiens, A549, read-out: INH
Description: Antiproliferative activity against human A549 cells assessed as cell growth inhibition at 1 uM by WST assay relative to control

[13] = test system: HepG2; experiment: cells; conditions: Homo sapiens
Description: Antiproliferative activity against human HepG2 cells assessed as cell growth inhibition by WST assay

[14] = test system: MDA-MB-231; experiment: cells; conditions: Homo sapiens, MDA-MB-231, read-out: INH
Description: Antiproliferative activity against human MDA-MB-231 cells assessed as cell growth inhibition at 1 uM by WST assay relative to control

[15] = test system: HCT-116; experiment: cells; conditions: Homo sapiens, HCT-116, read-out: INH
Description: Antiproliferative activity against human HCT-116 cells assessed as cell growth inhibition at 1 uM by WST assay relative to control

[16] = test system: PC-3; experiment: cells; conditions: Homo sapiens, PC-3, read-out: INH
Description: Antiproliferative activity against human PC3 cells assessed as cell growth inhibition at 1 uM by WST assay relative to control

[17] = test system: SK-OV-3; experiment: cells; conditions: Homo sapiens, SK-OV-3, read-out: INH
Description: Antiproliferative activity against human SK-OV-3 cells assessed as cell growth inhibition at 1 uM by WST assay relative to control

[18] = test system: MV4-11; experiment: Antiproliferative activity against human MV4-11 cells assessed as growth inhibition after 72 hrs; assay type: functional
[19] = AUClast in ICR mouse at 10 mg/kg, iv or po measured up to 1440 mins by LC-MS/MS analysis; assay type: ADME, organism-based; parameters: dose 10 mg/kg, time <=1440; conditions: in vivo
[20] = Cmax in ICR mouse at 10 mg/kg, iv or po measured up to 1440 mins by LC-MS/MS analysis; assay type: ADME, organism-based; parameters: dose 10 mg/kg, time <=1440; conditions: in vivo
[21] = test system: MV4-11; experiment: Antitumor activity against human MV4-11 cells xenografted in BALB/c nu/nu mouse assessed as reduction in tumor volume at 20 mg/kg, po administered once daily for 21 days measured twice daily during compound dosing; assay type: functional, organism-based; conditions: time 21.0 day
[22] = Toxicity in BALB/c nu/nu mouse xenografted with human MV4-11 cells assessed as body weight loss at 20 mg/kg, po administered for 21 days; assay type: organism-based; conditions: in vivo, 504 h, time 21 day

SMILES | IC50 [1] [nM] | GI50 [2] [nM] | further results
O=C1Nc2ccc(F)cc2/C1=C1/Nc2ccc(F)cc2/C1=N\OCCN1CCCC1 | 116 | 634 | 
COc1ccc2c(c1)/C(=C1/Nc3ccccc3/C1=N\OCCN1CCNCC1)C(=O)N2 | 12.4 | 22 | 
Cl.O=C1Nc2ccc([N+](=O)[O-])cc2/C1=C1/Nc2ccccc2/C1=N\OCCN1CCNCC1 | 13.2 | 7.01 | bioavailability [3]: 1.33%; clearance [4]: 108 mL/min/kg
O=C1Nc2ccc(F)cc2/C1=C1/Nc2ccc(F)cc2/C1=N\OCCN1CCCCC1 | 45 | 105 | 
O=C1Nc2ccc([N+](=O)[O-])cc2/C1=C1/Nc2ccc(O)cc2/C1=N\OCCN1CCOCC1 | 345 | 100 | 
CN1CCN(CCO/N=C2/C(=C3/C(=O)Nc4ccc([N+](=O)[O-])cc43)Nc3ccc(O)cc32)CC1 | 18.9 | 50 | 
CN1CCN(CCO/N=C2/C(=C3/C(=O)Nc4ccc([N+](=O)[O-])cc43)Nc3ccc(F)cc32)CC1 | 31.2 | 118 | 
O=C1Nc2ccc(OC(F)(F)F)cc2/C1=C1/Nc2ccccc2/C1=N\OCCN1CCNCC1 | 40.2 | 17 | 
Cl.NCCO/N=C1/C(=C2/C(=O)Nc3ccc([N+](=O)[O-])cc32)Nc2ccc(O)cc21 | 8.6 | 95.3 | bioavailability [3]: 0%
CN1CCN(CCO/N=C2/C(=C3/C(=O)Nc4ccccc43)Nc3ccccc32)CC1 | 9.29 | 54.8 | 
O=C1Nc2ccc(F)cc2/C1=C1/Nc2ccccc2/C1=N\OCCNC1CCNCC1 | 9.47 | 11.9 | 
Cl.O=C1Nc2ccc(F)cc2/C1=C1/Nc2ccc(F)cc2/C1=N\OCCN1CCNCC1 | 15.8 | 8.3 | bioavailability [3]: 16.7%; half-life [5]: 3.4 h; clearance [4]: 28.1 mL/min/kg
Cl.O=C1Nc2ccc([N+](=O)[O-])cc2/C1=C1/Nc2ccc(O)cc2/C1=N\OCCN1CCNCC1 | 12.2 | 26.5 | bioavailability [3]: 0%; clearance [4]: 70.4 mL/min/kg
O=C1Nc2ccc([N+](=O)[O-])cc2/C1=C1/Nc2ccc(O)cc2/C1=N\OCCBr | 324 | 470 | 
O=C1Nc2ccc(F)cc2/C1=C1/Nc2ccc(F)cc2/C1=N\OCCN1CCOCC1 | 98.3 | 116 | 
CCc1nc(C(N)=O)c(Nc2ccc(N3CCC(N4CCN(C)CC4)CC3)c(OC)c2)nc1NC1CCOCC1 [GILTERITINIB] |  |  | GI50 [6]: 0.9 nM; GI50 [7]: 1010 nM; GI50 [8]: 4.94 nM; GI50 [9]: 3.29 nM; GI50 [10]: 1.91 nM; GI50 [11]: 5.24 nM; inhibition at 1 µM [12]: 4.05%; GI50 [13]: 2200 nM; inhibition at 1 µM [14]: 42.1%; inhibition at 1 µM [15]: 45.1%; inhibition at 1 µM [16]: 41.8%; inhibition at 1 µM [17]: 23.3%
O=C1Nc2ccccc2/C1=C1/Nc2ccccc2/C1=N\OCCN1CCCCC1 | 128 | 138 | 
O=C1Nc2ccccc2/C1=C1/Nc2ccccc2/C1=N\OCCN1CCCC1 | 41.3 | 104 | 
COC(=O)c1ccc2c(c1)/C(=C1/Nc3ccccc3/C1=N\OCCN1CCNCC1)C(=O)N2 |  |  | bioavailability [3]: 1.43%; GI50 [18]: 1 nM
O=C1Nc2ccc([N+](=O)[O-])cc2/C1=C1/Nc2ccc(O)cc2/C1=N\O |  | 133 | 
O=C1Nc2ccc(F)cc2/C1=C1/Nc2ccccc2/C1=N\OCCN1CCCCC1 | 142 | 263 | 
CN1CCN(CCO/N=C2/C(=C3/C(=O)Nc4ccc(OC(F)(F)F)cc43)Nc3ccccc32)CC1 | 5.62 | 7 | 
O=C1Nc2ccc(F)cc2/C1=C1/Nc2ccccc2/C1=N\OCCN1CCCC1 | 257 | 212 | 
COc1ccc2c(c1)/C(=C1/Nc3ccccc3/C1=N\OCCN1CCN(C)CC1)C(=O)N2 | 2.1 | 20 | 
O=C1Nc2ccc([N+](=O)[O-])cc2/C1=C1/Nc2ccc(F)cc2/C1=N\OCCN1CCNCC1 | 27.6 | 10.2 | 
Cl.O=C1Nc2ccc(F)cc2/C1=C1/Nc2ccc(F)cc2/C1=N\OCCNC1CCNCC1 | 11.6 | 8.47 | bioavailability [3]: 15.3%; half-life [5]: 9.2 h; clearance [4]: 231 mL/min/kg
CN1CCN(CCO/N=C2/C(=C3/C(=O)Nc4ccc(F)cc43)Nc3ccc(F)cc32)CC1 | 27 | 31.5 | 
O=C1Nc2ccccc2/C1=C1/Nc2ccccc2/C1=N\OCCNC1CCNCC1 | 20.9 | 15.1 | 
Cl.O=C1Nc2ccccc2/C1=C1/Nc2ccccc2/C1=N\OCCN1CCNCC1 | 2.7 |  | bioavailability [3]: 51%; AUC(0-t) at 24 h [19]: 1200 ng·h/mL; Cmax [20]: 69.7 ng/mL; Activity [21]: Active; Activity [22]: Non-Toxic
CN1CCN(CCO/N=C2/C(=C3/C(=O)Nc4ccc(F)cc43)Nc3ccccc32)CC1 | 3.3 | 11.1 | 
